Source: US9586961B2, “Homopiperazine derivatives as protein tyrosine kinase inhibitors and pharmaceutical use thereof” (LEO PHARMA A/S, priority 2010, dated 2017)

Assays:
Assay type in all cases: biochemical
JAK1 = target: T1, JAK1 (Homo sapiens, UniProt P23458); test: JAK1 kinase assay (HTRF, inhibition of phosphorylation of a synthetic peptide); settings: catalytic domain aa 850-1154, GST-tag; 7 μM ATP (Km); read-out: JAK1 kinase inhibitory activity (EC50)
T1 construct: JAK1 (aa 850-1154) and TYK2 (aa 871-1187) are expressed with an N-terminally fused GST-tag; GST (N); purchased Carna Biosciences, Inc; host or cells: baculovirus expression system
How it was run: (§1)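 HTRF detection (streptavidin-XL665, cryptate anti-phospho antibody, overnight in the dark) after EDTA stop of a 20-30 min RT reaction on 1 μM TK substrate-biotin. Km-level ATP per kinase: 7 μM for JAK1 and 13 μM for TYK2, both N-terminal GST, with 50 nM SEB; 4 μM for JAK2 and 2 μM for JAK3, both His-tagged. Catalytic domains only; DMSO 0.75%.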

JAK2 = target: T2, JAK2 (Homo sapiens, UniProt O60674); test: JAK2 kinase assay (HTRF, inhibition of phosphorylation of a synthetic peptide); settings: catalytic domain, His-tag; 4 μM ATP (Km); read-out: JAK2 kinase inhibitory activity (EC50)
T2 construct: All four purified enzymes contain only the catalytic domain; His (N); purchased Carna Biosciences, Inc; host or cells: baculovirus expression system
How it was run: as §1

TYK2 = target: T3, TYK2 (Homo sapiens, UniProt P29597); test: TYK2 kinase assay (HTRF, inhibition of phosphorylation of a synthetic peptide); settings: catalytic domain aa 871-1187, GST-tag; 13 μM ATP (Km); read-out: TYK2 kinase inhibitory activity (EC50)
T3 construct: JAK1 (aa 850-1154) and TYK2 (aa 871-1187) are expressed with an N-terminally fused GST-tag; GST (N); purchased Carna Biosciences, Inc; host or cells: baculovirus expression system
T3 sequence (P29597 871-1187): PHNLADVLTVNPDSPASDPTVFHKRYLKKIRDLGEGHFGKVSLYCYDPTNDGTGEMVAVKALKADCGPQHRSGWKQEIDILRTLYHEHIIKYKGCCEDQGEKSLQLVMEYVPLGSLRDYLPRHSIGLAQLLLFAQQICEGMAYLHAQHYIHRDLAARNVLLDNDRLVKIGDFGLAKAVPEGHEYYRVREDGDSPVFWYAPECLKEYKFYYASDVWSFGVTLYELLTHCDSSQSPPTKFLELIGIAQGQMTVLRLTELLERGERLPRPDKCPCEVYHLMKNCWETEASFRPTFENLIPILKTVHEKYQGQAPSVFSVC
How it was run: as §1

JAK3 = target: T4, JAK3 (Homo sapiens, UniProt P52333); test: JAK3 kinase assay (HTRF, inhibition of phosphorylation of a synthetic peptide); settings: catalytic domain, His-tag; 2 μM ATP (Km); read-out: JAK3 kinase inhibitory activity (EC50)
T4 construct: All four purified enzymes contain only the catalytic domain; His (N); purchased Carna Biosciences, Inc; host or cells: baculovirus expression system
How it was run: as §1

T2 sequence (O60674 849-1124 limits assumed): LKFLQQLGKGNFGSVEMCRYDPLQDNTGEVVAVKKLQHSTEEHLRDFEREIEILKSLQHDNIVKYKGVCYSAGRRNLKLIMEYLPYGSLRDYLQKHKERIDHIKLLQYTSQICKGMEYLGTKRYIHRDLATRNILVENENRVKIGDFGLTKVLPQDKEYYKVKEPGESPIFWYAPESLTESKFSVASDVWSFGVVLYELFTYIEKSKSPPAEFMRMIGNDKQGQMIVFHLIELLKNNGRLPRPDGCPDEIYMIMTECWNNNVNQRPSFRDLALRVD
T1 sequence (P23458 850-1154): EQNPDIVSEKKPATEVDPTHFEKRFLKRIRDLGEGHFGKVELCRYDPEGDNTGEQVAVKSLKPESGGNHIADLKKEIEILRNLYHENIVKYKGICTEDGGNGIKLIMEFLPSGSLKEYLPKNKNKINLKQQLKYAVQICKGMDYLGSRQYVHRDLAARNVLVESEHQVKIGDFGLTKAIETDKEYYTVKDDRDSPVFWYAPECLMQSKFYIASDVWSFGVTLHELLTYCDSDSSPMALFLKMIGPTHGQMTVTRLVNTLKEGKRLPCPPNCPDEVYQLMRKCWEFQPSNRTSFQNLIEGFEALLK
T4 sequence (P52333 822-1111 limits assumed): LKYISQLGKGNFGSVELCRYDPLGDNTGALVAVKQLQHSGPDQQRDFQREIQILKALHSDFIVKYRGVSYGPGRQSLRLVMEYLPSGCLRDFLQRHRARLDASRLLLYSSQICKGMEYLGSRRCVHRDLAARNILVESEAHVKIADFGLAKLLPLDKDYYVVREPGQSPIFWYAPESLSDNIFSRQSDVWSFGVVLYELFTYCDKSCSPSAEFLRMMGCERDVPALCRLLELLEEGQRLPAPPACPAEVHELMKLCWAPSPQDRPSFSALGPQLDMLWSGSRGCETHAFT

SMILES	EC50 (JAK1) [nM]	EC50 (JAK2) [nM]	EC50 (TYK2) [nM]	EC50 (JAK3) [nM]
O=C(Cc1ccc(-c2nn[nH]n2)cc1)N1CCN(c2ncnc3[nH]ccc23)CC2(CC2)C1 [Example 77, 1-[5-(7H-pyrrolo[2,3-d]pyrimidin-4-yl)-5,8-diazaspiro[2.6]nonan-8-yl]-2-[4-(2H-tetrazol-5-yl)phenyl]ethanone]	< 100	< 100	100 to 1000	100 to 1000
Cc1cc(CC(=O)N2CCN(c3ncnc4[nH]ccc34)CC3(CC3)C2)no1 [Example 87, 2-(5-methylisoxazol-3-yl)-1-[5-(7H-pyrrolo[2,3-d]pyrimidin-4-yl)-5,8-diazaspiro[2.6]nonan-8-yl]ethanone]	< 100	< 100	100 to 1000	100 to 1000
O=C(Nc1ccccc1)N1CCCN(c2ncnc3[nH]ccc23)CC12CC2 [Example 90, N-phenyl-5-(7H-pyrrolo[2,3-d]pyrimidin-4-yl)-5,9-diazaspiro[2.6]nonane-9-carboxamide]	< 100	100 to 1000	> 1000	100 to 1000
S=C(Nc1ccccc1)N1CCCN(c2ncnc3[nH]ccc23)CC12CC2 [Example 91, N-phenyl-5-(7H-pyrrolo[2,3-d]pyrimidin-4-yl)-5,9-diazaspiro[2.6]nonane-9-carbothioamide]	< 100	< 100	> 1000	100 to 1000
O=C(C1CCCCC1)N1CCCN(c2ncnc3[nH]ccc23)CC12CC2 [Example 93, cyclohexyl-[5-(7H-pyrrolo[2,3-d]pyrimidin-4-yl)-5,9-diazaspiro[2.6]nonan-9-yl]methanone]	< 100	< 100	100 to 1000	100 to 1000
S=C(CC1CCCC1)N1CCCN(c2ncnc3[nH]ccc23)CC12CC2 [Example 95, 2-cyclopentyl-1-[5-(7H-pyrrolo[2,3-d]pyrimidin-4-yl)-5,9-diazaspiro[2.6]nonan-9-yl]ethanethione]	< 100	100 to 1000	> 1000	100 to 1000

Further lines, results first:

EC50 (JAK1) [nM]	EC50 (JAK2) [nM]	EC50 (TYK2) [nM]	EC50 (JAK3) [nM]	SMILES
< 100	< 100	100 to 1000	< 100	NS(=O)(=O)c1ccc(CC(=O)N2CCN(c3ncnc4[nH]ccc34)CC3(CC3)C2)s1 [Example 76, 5-[2-oxo-2-[5-(7H-pyrrolo[2,3-d]pyrimidin-4-yl)-5,8-diazaspiro[2.6]nonan-8-yl]ethyl]thiophene-2-sulfonamide]
100 to 1000	100 to 1000	> 1000	100 to 1000	CCCc1csc(C(=O)N2CCN(c3ncnc4[nH]ccc34)CC3(CC3)C2)c1 [Example 78, (4-propyl-2-thienyl)-[5-(7H-pyrrolo[2,3-d]pyrimidin-4-yl)-5,8-diazaspiro[2.6]nonan-8-yl]methanone]
< 100	100 to 1000	> 1000	100 to 1000	O=C(CC1CCCC1)N1CCCN(c2ncnc3[nH]ccc23)CC12CC2 [Example 92, 2-cyclopentyl-1-[5-(7H-pyrrolo[2,3-d]pyrimidin-4-yl)-5,9-diazaspiro[2.6]nonan-9-yl]ethanone]
> 1000	> 1000	> 1000	> 1000	Cc1ccc(S(=O)(=O)N2CCCN(c3ncnc4[nH]ccc34)CC23CC3)cc1 [Example 94, 4-[9-(p-tolylsulfonyl)-5,9-diazaspiro[2.6]nonan-5-yl]-7H-pyrrolo[2,3-d]pyrimidine]
100 to 1000	100 to 1000	> 1000	> 1000	CCCCS(=O)(=O)N1CCN(c2ncnc3[nH]ccc23)CC2(CC2)C1 [Example 97, 4-(8-butylsulfonyl-5,8-diazaspiro[2.6]nonan-5-yl)-7H-pyrrolo[2,3-d]pyrimidine]
> 1000	> 1000	> 1000	> 1000	Cc1ccc(S(=O)(=O)N2CC3(CC3)CN(c3ncnc4[nH]ccc34)CC2C)cc1 (stereo not drawn) [Example 98, 4-[7-methyl-8-(p-tolylsulfonyl)-5,8-diazaspiro[2.6]nonan-5-yl]-7H-pyrrolo[2,3-d]pyrimidine]
